19 compounds from patent publication US7504410B2, “Chk-, Pdk- and Akt-inhibitory pyrimidines, their production and use as pharmaceutical agents” (Schering Aktiengesellschaft, priority 2002, dated 2009) can be followed below.

Each structure is given as a SMILES string.

Target in one test: not listed separately
The test can be described thus: PDK-1-dependent activation and subsequent enzymatic activity of AKT2 (SPA). Format: biochemical, human. To be noted: AKT2 activated by PDK-1 in the assay; read-out: Akt-2 inhibition IC50. The procedure:
PDK-1-dependent activation and subsequent enzymatic activity of AKT2: Purified human AKT2 activity was routinely measured in an assay in which the enzyme was first activated by PDK-1 in the presence of phosphatidylinositol-4,5-bisphosphate (PIP2). Once activated, AKT2-dependent phosphorylation of a peptide substrate was measured by scintillation proximity assay (SPA).
Phospholipid vesicles were prepared as follows: 2.2 mg each of phosphatidylcholine (Sigma Cat # P-1287) and phosphatidylserine (Sigma Cat #P-6641) were transferred to a borosilicate glass test tube and dried down under nitrogen. 1 mg of PIP2 (Biomol Cat #PH-106) was suspended in 9.5 ml of 10 mM HEPES, pH 7.5 and transferred to the dried lipids. The tube was vortexed until a milky suspension was produced. Then the tube was placed in a ice water-jacketed cup horn sonicator (Branson Instruments) and subjected to sonication for 20 min at medium power until a translucent phospholipid vesicle preparation was obtained. Aliquots of the vesicle suspension were frozen at −80 °C until needed.
Assays were performed in 96-well polypropylene V-bottom plates. Incubations were carried out for 2 hr at room temperature. The assay mixture contained in a volume of 60 μL: 15 mM MOPS, pH 7.2, 1 mg/ml bovine serum albumin, 18 mM betaglycerolphosphate, 0.7 mM dithiothreitol, 3 mM EGTA, 10 mM MgOAc, 7.5 (M ATP, 0.2 μCi of [γ-^33P]ATP, 7.5 μM biotinylated peptide substrate (biotin-ARRRDGGGAQPFRPRAATF), 0.5 μL of PIP2-containing phospholipid vesicles, 60 pg of purified recombinant human PDK-1, and 172 ng of purified recombinant human AKT2. Test compounds were added from stock solutions in DMSO. The final concentration of DMSO was 2.5%. Following incubation, 10 μL of the assay mixture was transferred to a 96-well clear-bottom polystyrene plate (Wallac Isoplate) containing 0.33 mg of streptavidin-coated SPA beads (Amersham Cat. # RPNQ0007) suspended in 200 μL of phosphate-buffered saline, pH 7.4, containing 50 mM EDTA and 0.1% Triton X-100. After brief shaking, the SPA beads were allowed to settle to the bottom of the plate overnight at room temperature. […] PDK-1 was added at sub-optimal levels so that the assay could sensitively detect inhibitors of AKT2 activation as well as direct AKT2 kinase inhibitors. The z′-factor for the assay was greater than 0.7.
Phosphorylation was readily observed, however, upon addition of purified activated human AKT1 (purchased from Upstate Biotechnology), independent of the presence or absence of added PDK-1 or PIP2-containing vesicles.
Usually IC50 stands for the concentration that gives 50% inhibition. As to `CN1CC(=O)N(c2cccc(Nc3ncc(Br)c(NCCCNC(=O)[C@@H]4CSC(=O)N4)n3)c2)C1=O` [Example 546], the IC50 was found to be 4 nM.

Turning to `O=C(Nc1cccc(Nc2ncc(Br)c(NCCc3c[nH]cn3)n2)c1)N1CCCC1` [Example 220], the IC50 is 6 nM.

Regarding `NC(=O)C1(C(=O)NCCCNc2nc(Nc3cccc(NC(=O)[C@@H]4CCCN4)c3)ncc2Br)CC1` [Example 492], the IC50 is 23 nM.

For the compound `CC(C)(C(N)=O)C(=O)NCCCNc1nc(Nc2cccc(N3C(=O)CNC3=O)c2)ncc1Br` [Example 540], the IC50 worked out at 19 nM.

For `CC(C)(C(N)=O)C(=O)NCCCNc1nc(Nc2cccc(NC(=O)[C@@H](N)c3ccccc3)c2)ncc1Br` [Example 521], the IC50 came out at 44 nM.

Consider `CC(C)(C(N)=O)C(=O)NCCCNc1nc(Nc2cccc(NC(=O)[C@H](N)Cc3ccccc3)c2)ncc1Br` [Example 504], for which the IC50 amounted to 24 nM.

In another test the target is T1, Chk1 (Homo sapiens, UniProt O14757).
T1 construct: His6 (C); made in house; host or cells: Sf-9 insect cells (baculovirus)
T1 sequence (O14757 1-476): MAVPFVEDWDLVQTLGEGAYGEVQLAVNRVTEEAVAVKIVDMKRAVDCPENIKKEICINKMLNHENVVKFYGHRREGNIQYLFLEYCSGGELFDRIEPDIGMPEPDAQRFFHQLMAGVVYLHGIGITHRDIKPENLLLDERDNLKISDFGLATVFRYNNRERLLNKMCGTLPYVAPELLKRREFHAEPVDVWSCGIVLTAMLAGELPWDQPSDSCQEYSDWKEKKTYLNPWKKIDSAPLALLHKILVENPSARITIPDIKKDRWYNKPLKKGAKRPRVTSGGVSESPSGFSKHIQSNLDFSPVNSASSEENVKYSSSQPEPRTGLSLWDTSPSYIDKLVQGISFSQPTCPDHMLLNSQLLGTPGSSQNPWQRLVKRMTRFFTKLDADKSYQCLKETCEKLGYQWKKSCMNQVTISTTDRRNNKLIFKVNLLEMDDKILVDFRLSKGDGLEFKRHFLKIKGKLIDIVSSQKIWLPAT
Nature of the test: Chk1 kinase assay (SPA). Format: biochemical. To be noted: read-out: Chk-1 IC50. From the text: Recombinant Chk1-His6-fusion protein, expressed in insect cells (Sf-9) and purified by Ni-NTA affinity chromatography was used as kinase. Alternatively, commercially available GST-Chk1-fusion protein (Upstate Biotechnology, Dundee, Scotland) can be used. As substrate for the kinase reaction the biotinylated peptide biotin-Arg-Ser-Gly-Leu-Tyr-Arg-Ser-Pro-Ser-Met-Pro-Glu-Asn-Leu-Asn-Arg-Pro-Arg-OH was used which can be purchased e.g. from the company Biosyntan GmbH (Berlin-Buch, Germany).
Chk1 (200 ng/measurement point) was incubated for 60 min at 22 °C in the presence of different concentrations of test compounds (0 μM and concentrations in the range 0.001-30 μM) in 30 μl assay buffer [50 mM Hepes/NaOH pH7.5, 10 mM MgCl2, 1 mM MnCl2, 0.1 mM sodium ortho-vanadate, 1.0 mM dithiothreitol, 0.5 μM adenosine-tri-phosphate (ATP), 1.9 μM substrate peptide (Biotin-Arg-Ser-Gly-Leu-Tyr-Arg-Ser-ProSer-Met-Pro-Glu-Asn-Leu-Asn-Arg-Pro-Arg-OH), 6 nCi/measurement point ^33P-gamma ATP, 0.008% NP40, 1.5% (v/v) dimethylsulfoxide]. The reaction was stopped by the addition of 20 μl of a suspension of streptavidine coated PVT-SPA-beads (0.15 mg/measurement point, from Amersham Biotech) in an aqueous EDTA/ATP-solution (20 mM EDTA, 50 μM ATP, 1% (v/v) Triton X-100 in PBS).
The resulting mixture was incubated further 16 h at 22° C. to allow the binding of the biotinylated peptide to the streptavidine coated PVT-SPA-beads and to allow the sedimentation of the beads. Subsequently the amount of 33P incorporated into the substrate peptide was evaluated by scintillation measurement in a Topcount NXT (Perkin-Elmer).
For `C#CCOc1nc(Nc2cc(CO)cc(NCCO)c2)ncc1Br` [Example A18, 3-[[5-Bromo-4-(prop-2-ynyloxy)pyrimidin-2-yl]amino]-5-[(2-hydroxyethyl)amino]benzenemethanol], the IC50 stood at 80 nM.

Take `C#CCOc1nc(Nc2cc(CO)cc(NC(=O)[C@H](N)Cc3ccccc3)c2)ncc1Br` [Example A17, (αR)-α-Amino-N-[3-[[5-bromo-4-(prop-2-ynyloxy)pyrimidin-2-yl]amino]-5-(hydroxymethyl)phenyl]benzenepropanamide]: the IC50 was determined as 200 nM.

Regarding `C#CCOc1nc(Nc2cc(NC(=O)[C@H](N)Cc3ccccc3)cc(NC(=O)N3CCCC3)c2)ncc1Br` [Example A16], the IC50 came to 300 nM.

With `O=C(Cc1ccc(Cl)cc1Cl)NCCCNc1nc(Nc2cccc(NC(=O)N3CCCC3)c2)ncc1Br` [Example 699], the IC50 came out at 20 nM.

`Brc1cnc(Nc2cccc(CN3CC=CC3)c2)nc1NCCc1c[nH]cn1` [Example 65]: the IC50 is 440 nM.

The target in another test is T2, VEGFR II (KDR) (Homo sapiens, UniProt P35968).
T2 construct: GST; made in house; host or cells: Sf-9 insect cells
T2 sequence (P35968 20-1356, species assumed): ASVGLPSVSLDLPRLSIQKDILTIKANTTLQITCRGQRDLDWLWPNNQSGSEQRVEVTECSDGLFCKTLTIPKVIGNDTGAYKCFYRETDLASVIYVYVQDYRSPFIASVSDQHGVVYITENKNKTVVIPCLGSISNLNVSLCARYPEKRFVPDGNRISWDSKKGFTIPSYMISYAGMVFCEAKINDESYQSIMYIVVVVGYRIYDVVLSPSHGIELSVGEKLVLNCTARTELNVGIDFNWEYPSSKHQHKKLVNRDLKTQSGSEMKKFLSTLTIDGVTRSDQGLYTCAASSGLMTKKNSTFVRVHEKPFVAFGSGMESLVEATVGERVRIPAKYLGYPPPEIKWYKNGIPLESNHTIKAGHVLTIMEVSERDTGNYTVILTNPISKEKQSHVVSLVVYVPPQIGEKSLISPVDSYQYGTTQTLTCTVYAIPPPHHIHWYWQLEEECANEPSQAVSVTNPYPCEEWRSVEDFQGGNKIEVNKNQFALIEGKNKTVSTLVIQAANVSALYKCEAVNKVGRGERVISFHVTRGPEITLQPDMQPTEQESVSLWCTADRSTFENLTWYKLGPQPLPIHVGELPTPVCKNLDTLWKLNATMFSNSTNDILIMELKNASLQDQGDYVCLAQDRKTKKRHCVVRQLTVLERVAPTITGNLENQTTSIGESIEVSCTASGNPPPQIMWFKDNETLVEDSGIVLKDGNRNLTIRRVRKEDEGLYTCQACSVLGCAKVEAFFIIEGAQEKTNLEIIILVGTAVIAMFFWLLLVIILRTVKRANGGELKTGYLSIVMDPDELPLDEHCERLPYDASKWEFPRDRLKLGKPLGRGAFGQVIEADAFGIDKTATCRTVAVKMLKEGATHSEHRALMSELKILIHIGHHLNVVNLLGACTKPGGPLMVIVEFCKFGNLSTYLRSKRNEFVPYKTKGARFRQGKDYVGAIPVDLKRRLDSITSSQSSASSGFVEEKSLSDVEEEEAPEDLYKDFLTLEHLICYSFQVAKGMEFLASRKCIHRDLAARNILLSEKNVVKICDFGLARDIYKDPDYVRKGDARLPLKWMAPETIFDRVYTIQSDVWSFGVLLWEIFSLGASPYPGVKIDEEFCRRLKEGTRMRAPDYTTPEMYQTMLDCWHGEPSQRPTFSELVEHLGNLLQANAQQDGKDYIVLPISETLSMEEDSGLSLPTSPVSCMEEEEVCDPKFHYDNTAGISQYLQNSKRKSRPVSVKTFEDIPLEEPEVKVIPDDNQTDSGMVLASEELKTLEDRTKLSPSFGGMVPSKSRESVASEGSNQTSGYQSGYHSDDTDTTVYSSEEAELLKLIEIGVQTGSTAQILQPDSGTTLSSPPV
The test can be described thus: KDR kinase assay (HTRF). Format: biochemical.
Conditions: not given
From the text: Recombinant KDR-GST-fusion protein, expressed in insect cells (Sf-9) and purified by Glutathion affinity chrormatography was used as kinase. Alternatively, commercially available GST-KDR-fusion protein (Proqinase, Freiburg i.Brsg., Germany) can be used. As substrate for the kinase reaction the biotinylated copolymer poly-(Glu, Tyr-4:1) which can be purchased e.g. from the company Cisbiointernational (Marcoule, France).
In a black low volume 384 well microtiterplate (Greiner, Frickenhausen, Germany) KDR (enzyme amount depending on lot, adjusted to give an dF of about 300-400) was incubated for 20 min at 22° C. in the presence of different concentrations of test compounds (0 μM and concentrations in the range 0.001-30 μM) in 15 μl assay buffer [50 mM Hepes/NaOH pH7.0, 25 mM MgCl2, 5 mM MnCl2, 0.5 mM sodium ortho-vanadate, 1.0 mM dithiothreitol, 1 μM adenosine-tri-phosphate (ATP), 23.5 μg/ml substrate [biotinylated poly-(Glu, Tyr; 4:1)], 1.5% (v/v) dimethylsulfoxide]. The reaction was stopped by the addition of 5 μl of a solution of the detection reagents [0.3 μg/ml Eu-W1024-labeled antiphosphotyrosine antibody (PT66) (Perkin-Elmer) and 4.125 μg/ml […] (Cisbiointernational, Marcoule, France)] in an aqueous EDTA-solution (250 mM EDTA, 0.1% (w/v) bovine serum albumine in 100 mM HEPES/NaOH pH 7.0).
The resulting mixture was incubated further 2 h at 22° C. to allow the binding of the biotinylated substrate and product to the SA-XL-665 and the EU labeled anti-phosphotyrosine antibody. Subsequently the amount of phosphate incorporated into the substrate was evaluated by resonance energy transfer measurement in a HTRF reader (Discovery, Perkin-Elmer).
The IC50 values are determined from the inhibitor concentration that is necessary to inhibit the phosphate incorporation to 50% of the uninhibited incorporation after removal of the blank reading (EDTA-stopped reaction).
(TR-FRET usually uses a lanthanide donor and a delayed reading to cut background.)
For `CN1CC(=O)N(c2cccc(Nc3ncc(Br)c(NCCCNC(=O)[C@@H]4CSC(=O)N4)n3)c2)C1=O` [Example 546], the IC50 was found to be 4 nM.

Take `CCN(CCN1CCCCC1)C(=O)Nc1cccc(Nc2ncc(Br)c(NCCc3c[nH]cn3)n2)c1` [Example 389]: half-maximal inhibition (IC50) was put at 330 nM.

For the compound `CCOC(=O)NCCCNc1nc(Nc2cccc(NC(=O)N3CCCC3)c2)ncc1Br` [Example 477], 740 nM corresponded to half-maximal inhibition (IC50).

With `O=C1N[C@H](C(=O)NCCCNc2nc(Nc3cccc(N4C(=O)CNC4=O)c3)ncc2Br)CS1` [Example 535], the IC50 was found to be 2.6 nM.

The compound `O=C1N[C@H](C(=O)NCCCNc2nc(Nc3cccc(NC(=O)N4CCCC4)c3)ncc2Br)CS1` [Example 452] came in with an IC50 of 9.7 nM.

In turn, `C[C@@H](N)C(=O)NCCCNc1nc(Nc2cccc(NC(=O)N3CCCC3)c2)ncc1Br` [Example 512] had an IC50 of 1400 nM.

As to `CC(C)CC(=O)NCCCNc1nc(Nc2cccc(NC(=O)N3CCCC3)c2)ncc1Br` [Example 473], the half-inhibitory concentration (IC50) came to 400 nM.

In turn, `CN1CC(=O)N(c2cccc(Nc3ncc(Br)c(NCCc4c[nH]cn4)n3)c2)C1=O` [Example 395] gave an IC50 of 32 nM.

For `O=C1CC[C@@H](C(=O)NCCCNc2nc(Nc3cccc(N4C(=O)CNC4=O)c3)ncc2Br)N1` [Example 539], the IC50 stood at 10.6 nM.
